What all share (format): functional
Experiment [1] has as its system Staphylococcus aureus. Kind of experiment: Antibacterial activity against Staphylococcus aureus ATCC 29213 assessed as inhibition of bacterial growth measured after 24 hrs incubation.
Experiment [2] concerns Enterococcus faecalis. Briefly: Antibacterial activity against Enterococcus faecalis assessed as inhibition of bacterial growth measured after 24 hrs incubation.
Experiment [3] has as its system Pseudomonas aeruginosa. Kind of experiment: Antibacterial activity against Pseudomonas aeruginosa ATCC 27853 assessed as inhibition of bacterial growth measured after 24 hrs incubation.
Experiment [4] relates to Acinetobacter baumannii. Briefly: Antibacterial activity against Acinetobacter baumannii assessed as inhibition of bacterial growth measured after 24 hrs incubation.
Experiment [5] has as its system Escherichia coli. Briefly: Antibacterial activity against Escherichia coli assessed as inhibition of bacterial growth measured after 24 hrs incubation.
Experiment [6] concerns Staphylococcus aureus. Kind of experiment: Antibacterial activity against Staphylococcus aureus ATCC 25923 assessed as inhibition of bacterial growth measured after 24 hrs incubation.
Experiment [7] has as its system Escherichia coli. Kind of experiment: Potency index, ratio of norfloxacin MIC to test compound MIC for antibacterial activity against Escherichia coli ATCC 25922 assessed as inhibition of bacterial growth measured after 24 hrs incubation.
Experiment [8] relates to Escherichia coli. Briefly: Antibacterial activity against Escherichia coli ATCC 25922 assessed as inhibition of bacterial growth measured after 24 hrs incubation.
In experiment [9] the test system is Klebsiella pneumoniae. Briefly: Antibacterial activity against Klebsiella pneumonia assessed as inhibition of bacterial growth measured after 24 hrs incubation.
In experiment [10] the test system is Staphylococcus aureus. Kind of experiment: Antibacterial activity against Staphylococcus aureus assessed as inhibition of bacterial growth measured after 24 hrs incubation.
The test system of experiment [11] is Pseudomonas aeruginosa. Kind of experiment: Antibacterial activity against Pseudomonas aeruginosa assessed as inhibition of bacterial growth measured after 24 hrs incubation.
Experiment [12] deals with Escherichia coli. Briefly: Potency index, ratio of norfloxacin MIC to test compound MIC for antibacterial activity against Escherichia coli assessed as inhibition of bacterial growth measured after 24 hrs incubation.
Experiment [13] concerns Staphylococcus aureus. Kind of experiment: Antibacterial activity against methicillin-resistant Staphylococcus aureus N315 assessed as inhibition of bacterial growth measured after 24 hrs incubation.

Converted amounts (≈) assume the structure as drawn.

The MIC is the smallest concentration in the dilution series that meets the test's criterion for growth inhibition. For `CCCCn1cc(C(=O)O)c(=O)c2cc(F)c(N3CCN(C(=O)/C(C#N)=C/c4cn(CC(=O)OCC)c5ccccc45)CC3)cc21`, the MIC in experiment [1] worked out at 1 µg/mL (≈ 1.59 µM); in experiment [2] it was 1 µg/mL (≈ 1.59 µM); in experiment [3], 1 µg/mL (≈ 1.59 µM); in experiment [4], 0.5 µg/mL (≈ 0.797 µM); in [5] it was 0.25 µg/mL (≈ 0.398 µM); in [6], 4 µg/mL (≈ 6.37 µM). Moreover, the MIC in experiment [8] turned out to be 0.25 µg/mL (≈ 0.398 µM); in experiment [9], 16 µg/mL (≈ 25.5 µM); in [10] it was 1 µg/mL (≈ 1.59 µM); in [11], 4 µg/mL (≈ 6.37 µM); in experiment [13], 2 µg/mL (≈ 3.19 µM). In addition, the results for the Ratio in [7] and in experiment [12] were 2 and 8, respectively.
Take `CCn1cc(C(=O)O)c(=O)c2cc(F)c(N3CCN(C(=O)/C(C#N)=C/c4c[nH]c5cc(F)ccc45)CC3)cc21`: the MIC turned out to be 2 µg/mL (≈ 3.76 µM) in experiment [1]; 8 µg/mL (≈ 15.1 µM) in experiment [2]; 1 µg/mL (≈ 1.88 µM) in experiment [3]; 2 µg/mL (≈ 3.76 µM) in experiment [4]; 4 µg/mL (≈ 7.53 µM) in [5]; 4 µg/mL (≈ 7.53 µM) in [6]. Moreover, the MIC in experiment [8] worked out at 2 µg/mL (≈ 3.76 µM); in experiment [9], 0.5 µg/mL (≈ 0.941 µM); in experiment [10], 1 µg/mL (≈ 1.88 µM); in [11] it was 1 µg/mL (≈ 1.88 µM); in experiment [13], 8 µg/mL (≈ 15.1 µM).
Consider `CCn1cc(C(=O)O)c(=O)c2cc(F)c(N3CCN(C(=O)/C(C#N)=C/c4cn(Cc5ccc(Cl)cc5)c5ccccc45)CC3)cc21`, for which the minimal inhibitory concentration (MIC) in experiment [1] was 16 µg/mL (≈ 25.1 µM); in [2], 32 µg/mL (≈ 50.1 µM); in experiment [3] it was 1 µg/mL (≈ 1.57 µM); in experiment [4], 0.5 µg/mL (≈ 0.784 µM); in experiment [5], 1 µg/mL (≈ 1.57 µM); in experiment [6], 16 µg/mL (≈ 25.1 µM). For the same compound, the MIC came to 4 µg/mL (≈ 6.27 µM) in experiment [8]; 0.5 µg/mL (≈ 0.784 µM) in experiment [9]; 64 µg/mL (≈ 100 µM) in [10]; 0.5 µg/mL (≈ 0.784 µM) in experiment [11]; 32 µg/mL (≈ 50.1 µM) in experiment [13].
For the compound `CCn1cc(C(=O)O)c(=O)c2cc(F)c(N3CCN(C(=O)/C(C#N)=C/c4c[nH]c5ccc(Cl)cc45)CC3)cc21`, the MIC was 2 µg/mL (≈ 3.65 µM) in experiment [1]; 1 µg/mL (≈ 1.82 µM) in experiment [2]; 0.25 µg/mL (≈ 0.456 µM) in experiment [3]; 1 µg/mL (≈ 1.82 µM) in [4]; 0.25 µg/mL (≈ 0.456 µM) in experiment [5]; 16 µg/mL (≈ 29.2 µM) in experiment [6]. The MIC worked out at 0.25 µg/mL (≈ 0.456 µM) in experiment [8]; 1 µg/mL (≈ 1.82 µM) in [9]; 1 µg/mL (≈ 1.82 µM) in experiment [10]; 2 µg/mL (≈ 3.65 µM) in experiment [11]; 1 µg/mL (≈ 1.82 µM) in experiment [13].
Regarding `CCOC(=O)Cn1cc(/C=C(\C#N)C(=O)N2CCN(c3cc4c(cc3F)c(=O)c(C(=O)O)cn4Cc3ccccc3)CC2)c2ccccc21`, the MIC in experiment [1] was found to be 256 µg/mL (≈ 387 µM); in [2] it was 0.25 µg/mL (≈ 0.378 µM); in experiment [3], 4 µg/mL (≈ 6.05 µM); in experiment [4], 4 µg/mL (≈ 6.05 µM); in [5], 8 µg/mL (≈ 12.1 µM); in [6], 256 µg/mL (≈ 387 µM). Also, the minimal inhibitory concentration (MIC) is 16 µg/mL (≈ 24.2 µM) in experiment [8]; 2 µg/mL (≈ 3.02 µM) in [9]; 256 µg/mL (≈ 387 µM) in experiment [10]; 256 µg/mL (≈ 387 µM) in experiment [11]; 256 µg/mL (≈ 387 µM) in [13].

Source of the values: ChEMBL document CHEMBL5512655, “Discovery of indolylacryloyl-derived oxacins as novel potential broad-spectrum antibacterial candidates” (Eur J Med Chem, 2024).
